The values below come from paper PMC8839939 (Polymers, 2022).

The nature of data set [1]: In-vivo pharmacokinetic study in mice. Particulars: mouse, plasma. The method, then:
In in-vivo study, the average mouse weight was 24 ± 5 g. Mice were acclimated for 7 days prior to the study and fasted for 24 h before the study. All in-vivo experiments were approved by the ethical committee, Faculty of Pharmacy, Gomal University (No: 10/ERB/GU). The mice were anesthetized under gas anesthesia (i.e., isoflurane in oxygen (2–4% (v/v))). Bulk hairs were removed with an electrical clipper and then a depilatory cream was applied to remove the remaining hair that could interfere with the insertion of LS-TC-MNP [41, 42]. Hairs were removed from the back area of mouse at 4 h prior to experiment. Mice were divided into two groups (n = 16 per group (total: 32)); oral (given the oral LS dispersion) and transdermal (LS-TC-MNP inserted in skin). Mice in the oral group received an oral LS dispersion of (200 mg/kg). The transdermal group was the LS-TC-MNP treatment group, in which each mouse was treated with (LS = 25 mg) LS-TC-MNP. To facilitate the insertion of LS-TC-MNP, the mice were anesthetized by gas anesthesia. The mice skin was pinched, and LS-TC-MNP attached to self-adhesive margins was inserted with firm finger pressure onto the back of each mouse. Blood samples were withdrawn by bleeding the tail vein at predetermined time intervals. The study plan was 16 mice per group and a maximum of (n = 3) blood samples was withdrawn from each mouse. Each mouse was bled twice a day. After 1 and 4 h, blood was withdrawn from the first 4 mice; the next 4 mice were bled after 2 and 6 h; the next four mice at 8 and 24 h; the remaining 4 mice at 12 h; and all mice (n = 16) at 48 h. The area under the curve and other pharmacokinetic parameters were measured by using Pk solver software (Microsoft Excel add-in programm).

The conditions of data set [2]: cited from earlier work.

With `CCN1CCC[C@H]1CNC(=O)c1cc(S(N)(=O)=O)ccc1OC` [Levosulpiride, 5-(amino-sulfonyl)-N-[(1-ethyl-2-pyrrolidinyl)methyl]-2-methoxy benzamide], the concentration at 1 h in data set [1] (1 h, patch LS = 25 mg transdermal or oral dispersion 200 mg/kg) turned out to be 500 ± 1940 ng/mL. In data set [1] (2 h, oral dispersion 200 mg/kg, read-out: LS plasma concentration), the concentration at 2 h came to 200 ng/mL. Moreover, in data set [1] (4 h, oral dispersion 200 mg/kg, read-out: LS plasma concentration), the concentration at 4 h came out at 180 ng/mL. The concentration at 6 h in data set [1] (6 h, patch LS = 25 mg transdermal or oral dispersion 200 mg/kg) is 400 ± 1370 ng/mL. Further, in data set [2] (intravenous ref 6), the “intravenous dose excreted unchanged in the urine” value is listed as 70–90%. Besides, in data set [2] (oral ref 4), the half-life result was “about 6 h” and the oral bioavailability result is “less than 25%”. For the same compound, the “oral dose excreted unchanged in the urine” value in data set [2] (oral ref 6) is recorded as 15–25%.
